Measurements from patent US12590118B2, “Salt and crystal form of steroid derivative regulator” (Shanghai Hansoh Biomedical Co., Ltd., priority 2019, dated 2026).

Legend:
GABA-A receptor = assay: 35S-TBPS binding assay (GABAA receptor binding ability assay); parameters: species or system Sprague-Dawley rat; settings: rat cerebral cortex cell membrane, 5 μM GABA, 2 nM 35S-TBPS; read-out: IC50 on inhibiting the TBPS binding activity, 35S-TBPS bindng assay
In short: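 Male Sprague-Dawley rat cerebral cortex membranes in PBS, preincubated with compound (1% DMSO, 8-point 3-fold series) 5 min at 25° C, then GABA 5 μM final 5 min, then 2 nM 35S-TBPS for 20 h at 4° C. Bound radioactivity filtered on PEI-treated GF/C and counted. % inhibition relative to DMSO and 10 μM P026-2 controls; IC50 from 4-parameter fit.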

[1] = molecular target: T1, human GABAA receptor α1, β2 and γ2 subunit (HEK293T cell line) (Homo sapiens, UniProt P14867+P47870); assay: Positive regulatory effect on GABAA receptor, manual patch clamp; format: cell-based; settings: whole-cell current, 1 μM GABA
T1 construct: expressed in transfected cells
T1 sequence (P14867 28-456): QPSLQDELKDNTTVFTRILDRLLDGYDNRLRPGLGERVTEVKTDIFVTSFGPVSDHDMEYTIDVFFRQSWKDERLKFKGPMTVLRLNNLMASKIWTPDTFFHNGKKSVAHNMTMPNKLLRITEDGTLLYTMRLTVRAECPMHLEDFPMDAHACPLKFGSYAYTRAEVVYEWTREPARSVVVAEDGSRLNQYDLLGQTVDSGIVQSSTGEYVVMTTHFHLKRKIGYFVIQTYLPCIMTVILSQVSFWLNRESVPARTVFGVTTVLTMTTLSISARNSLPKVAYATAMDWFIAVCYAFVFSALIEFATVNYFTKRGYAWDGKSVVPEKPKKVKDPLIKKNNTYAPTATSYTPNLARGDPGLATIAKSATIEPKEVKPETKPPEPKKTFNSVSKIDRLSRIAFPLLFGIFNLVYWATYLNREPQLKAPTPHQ
T1 sequence (P47870 25-512 limits assumed): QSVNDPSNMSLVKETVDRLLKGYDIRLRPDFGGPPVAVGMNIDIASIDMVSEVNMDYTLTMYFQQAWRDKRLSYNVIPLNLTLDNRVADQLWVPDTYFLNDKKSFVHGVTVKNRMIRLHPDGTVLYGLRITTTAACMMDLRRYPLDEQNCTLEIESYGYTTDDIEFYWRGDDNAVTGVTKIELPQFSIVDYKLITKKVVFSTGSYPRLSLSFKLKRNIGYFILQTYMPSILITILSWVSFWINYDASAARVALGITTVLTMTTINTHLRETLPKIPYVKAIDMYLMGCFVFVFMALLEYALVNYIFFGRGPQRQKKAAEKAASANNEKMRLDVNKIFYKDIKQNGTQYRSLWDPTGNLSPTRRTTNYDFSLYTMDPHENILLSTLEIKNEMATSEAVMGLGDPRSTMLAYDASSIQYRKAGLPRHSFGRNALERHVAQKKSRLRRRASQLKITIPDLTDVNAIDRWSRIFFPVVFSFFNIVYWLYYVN
T1 sequence (P18507 40-475 partner): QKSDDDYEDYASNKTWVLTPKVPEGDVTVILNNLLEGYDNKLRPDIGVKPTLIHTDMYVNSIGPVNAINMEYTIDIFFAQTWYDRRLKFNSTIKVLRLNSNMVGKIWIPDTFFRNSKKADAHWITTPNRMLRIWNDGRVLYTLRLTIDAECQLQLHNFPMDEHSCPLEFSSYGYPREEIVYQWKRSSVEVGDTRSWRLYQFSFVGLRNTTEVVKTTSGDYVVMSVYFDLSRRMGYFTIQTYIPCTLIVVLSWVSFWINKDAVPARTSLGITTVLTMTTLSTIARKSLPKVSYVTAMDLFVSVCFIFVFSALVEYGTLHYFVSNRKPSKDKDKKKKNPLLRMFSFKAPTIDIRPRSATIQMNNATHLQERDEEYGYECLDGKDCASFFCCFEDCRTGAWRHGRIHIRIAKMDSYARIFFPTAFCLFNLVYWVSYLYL
Method: The objective of this test example is to determine the positive regulatory effect of the compound on GABAA receptor by the electrophysiological manual patch clamp method.
Manual patch clamp system HEKA EPC10 USB signal amplifier and digital conversion system (purchased from HEKA Electronics, Germany), centrifuge (Eppendorf, etc.), carbon dioxide incubator (purchased from Thermo, etc.), biological safety cabinet (Thermo, etc.), pipette (purchased from Eppendorf, etc.).
The cells were grown in a culture dish with DMEM medium (purchased from Invitrogen), and cultured in an incubator at 37° C. and 5% CO2. Before the electrophysiological experiment, the cells were transferred to a round glass slide placed in the culture dish, and grown in the same culture medium and under the same culture condition as above. The density of cells on each round glass slide should meet the requirement that most cells were independent and individual.
Each test compound was diluted in gradient with DMSO to obtain a stock solution, which was then diluted with extracellular fluid by 1,000-fold to obtain the final test concentration. The final concentration of DMSO in the compound solution with each concentration was 0.1%. The experiment used the manual patch clamp system HEKA EPC10 USB signal amplifier and digital conversion system for whole cell current recording. The round glass slide with HEK293T GABAA cells grown on the surface was taken out of the culture dish, and placed in the electrophysiological recording tank under the inverted microscope. The recording tank was continuously perfused with extracellular fluid. During the experiment, the whole-cell current recording technology was used to record the chloride current of the GABAA channel. 1 μM GABA was used to activate the chloride current of the GABAA channel of each cell as an initial control. 1 μM GABA acted on the cell through the drug perfusion system to induce the chloride current of the GABAA channel, the action time was about 3 to 5 seconds, and the current value was used as the initial control value. The test concentration of compound was perfused and incubated for 2 to 5 minutes. […] GABA solution (mixed with the test concentration of compound) was given to the cells to observe the enhancement effect of the test compound on the current induced by 1 μM GABA. When the cell state was stable, the test compound acted on the same cell from low to high concentration to record the enhancement effect of the induced current.
The experimental data was analyzed by HEKA Patchmaster, Microsoft Excel and the data analysis software provided by Graphpad Prism.

ICR mice = assay: Forced swimming model in mice; format: in vivo; settings: for Mean (immobility, %): floating time/240 s; for Mean (immobility, s): latter four minutes of 6 min swim
Method: The antidepressant effect of the compound was evaluated by the forced swimming model in mice.
Compounds of Examples 1 to 3, Example 9, Example 40, Example 41, Examples 48 to 52, Example 90 and Example 98 of the present invention, prepared by the applicant.
Male ICR mice (25-35 g) were adapted in the experiment environment for 3 days before the forced swimming test.
According to the experiment design, the mice were randomly grouped on the day before the experiment according to body weight, with 12 mice in each group. Before the test, the compounds of each example were administered intragastrically according to the Tmax thereof in the brain in mice pharmacokinetic experiment.
Respectively: • 1) Model group (0.5% CMC-Na-1% Tween 80 solution, p.o., 10 mL/kg); • 2) Compounds of Examples 1 to 3, Example 40, Example 41, Examples 48 to 51, Example 90 and Example 98 (10 mg/kg, p.o., 10 mL/kg); Example 9 and Example 52 (5 mg/kg, p.o., 5 mL/kg).
When being administered, the compounds of each example were suspended in 0.5% CMC-Na+1% Tween 80 solution to the desired concentration.
0.5-1 hour after administration, ICR mice were placed in a forced swimming device (transparent glass drum (water depth 18 cm, water temperature 25-26° C.), one mouse per tank) and forced to swim for 6 minutes. The forced swimming device recorded the floating time of the ICR mice during the entire 6 minutes, and the data of the latter four minutes were used for data analysis. The mice were taken out immediately after the swimming experiment, wiped dry and put back in their original cages.
Note: The criterion for determining the immobility time is that the mouse stops struggling in water and floats, and there are only slight limb movements to keep the head floating on the water.
3.4 Data Analysis Floating time percentage=100*floating time/240 s.

CD-1 mice = assay: PTZ-induced epilepsy model in mice; format: in vivo; settings: 3 mpk p.o., PTZ 120 mg/kg s.c., 30 min observation
Method: The PTZ-induced epilepsy model in CD-1 mice was established, and the antiepileptic effect of the compounds of Example 2, Example 40, Example 41 and Example 52 was evaluated using this model.
50 male CD-1 mice were purchased from Beijing Vital River Laboratory Animal Technology Co. Ltd. The test animals were adapted at the animal room in the third building of Shanghai ChemPartner Co., Ltd for 7 days before the experiment. The average body weight of the animals on the test day was 32.2±0.2 grams. Feeding environment: 5 animals/cage, room temperature 23±2° C., 12/12 hours of light and dark cycle, free access to food and water.
The mice were randomly grouped for the experiment on the test day.
Compounds of Example 2, Example 40, Example 41 and Example 52 (prepared by the applicant). The test compounds were stored in a refrigerator at 4° C.
4.2.3 Test Equipments • 1 ml sterile disposable syringe with needle (purchased from Zhejiang Kangdelai Medical Devices Co., Ltd.) • Pipette: Eppendorf Research Plus (100-1000 μL) • Vortex mixer: Kylin-Bell Vortex 5 • Ultrasonic instrument: JL-360 ultrasonic cleaner • Balance: METTLER TOLEDO XS204 precision balance • Balance: METTLER TOLEDO XS6002S electronic balance • Plexiglass box: 25 cm length*15 cm width*15 cm height with one opaque side wall, custom made by Suzhou Fengshi Laboratory Animal Equipment Co., Ltd • 3-channel timer: Oregon/Model NO. WB-388. 4.2.4 Test Animal Grouping • 1) Vehicle/PTZ: 0.5% CMC-Na+1% Tween-80 (10 ml/kg, p.o.), administered 0.5 hr before the PTZ administration; PTZ ([…], s.c.), administered before the experiment; • 2) 3 mg/kg of the compounds of Examples/PTZ: the compounds of Example 2, Example 40, Example 41 and Example 52 (3 mg/kg, 10 ml/kg, p.o.), administered 0.5 hr before the PTZ administration; PTZ ([…], s.c.), administered before the experiment. 4.3 Experimental Procedures 4.3.1 Solvent Formulation • 1) 0.5% CMC-Na+1% Tween-80 (administration volume: 10 mL/kg):
1 g of sodium carboxymethyl cellulose was precisely weighed and added to a 250 mL solvent bottle, then 150 mL of double-distilled water was added. The mixture was stirred at room temperature for 4 hours with a magnetic stirrer to obtain a uniform and clear solution. 2 mL of Tween-80 was slowly added, and the mixture was stirred at room temperature for 3 hours to obtain a uniform and clear solution. The solution was slowly transferred to a 200 mL volumetric flask, and double distilled water was added to the constant volume of 200 mL. The solution was transferred to a 250 mL solvent bottle, and stirred for 1 hour with a magnetic stirrer to obtain a uniform and clear solution. • 2) 30% hydroxypropyl-p-cyclodextrin:
248 mg of PTZ was precisely weighed and added to a 40 mL brown flask, then 20.667 mL of physiological saline was added. The mixture was mixed by vortex for 2 minutes, and treated by ultrasound at room temperature for 2 minutes to obtain a uniform and clear solution (concentration: 12 mg/mL). • 2) 0.3 mg/mL of the compounds of Example 5 or Example 23 (dose: 3 mg/kg; administration volume: 10 mL/kg): […]
4.4 Adaptation to the Environment
The mice were randomly grouped, marked and weighed; 10 mice per group. The test compound was administered orally at an administration volume of 10 mL/kg 30-60 minutes before the PTZ administration.
PTZ (120 mg/kg) was administrated subcutaneously before the experiment observation, and this time point was recorded as the observation start point; after the administration of PTZ, the animal was immediately placed in the observation box and observed for 30 minutes, and the followings were recorded: a) the incubation period of the first clonic seizure, b) the incubation period of the first generalized tonic seizure, c) the number of clonic seizures, d) the number of generalized tonic seizures, e) the time when the animal died.
All measurement data were expressed as Mean±SEM, and analysed with Prism 6.0 statistical software.

`C[C@@H]1C[C@H](C(=O)Cn2cc(C#N)cn2)[C@@]2(C)CC[C@H]3[C@@H](CC[C@@H]4C[C@](C)(O)CC[C@@H]43)[C@H]12` [Example 9, 1-(2-((3R,5R,8R,9R,10S,13S,14S,15R)-3-Hydroxy-3,13,15-trimethylhexadecahydro-1H-cyclopenta[a]phenanthren-17-yl)-2-oxoethyl)-1H-pyrazole-4-carbonitrile] was tested, and the IC50 (GABA-A receptor) was 4.6 nM, the EC50 [1] was 60 nM and the “Mean (immobility, %)” value (ICR mice; dose 5 mpk p.o.) was 57.60%. For the same molecule, the “Mean (immobility, s)” value (ICR mice; dose 5 mpk p.o.) was 138.22 s.
With `C[C@@H]1C[C@H](C(=O)Cn2nccn2)[C@@]2(C)CC[C@H]3[C@@H](CC[C@@H]4C[C@](C)(O)CC[C@@H]43)[C@H]12` [Example 41, 1-((3R,5R,8R,9R,10S,13S,14S,15R,17S)-3-Hydroxy-3,13,15-trimethylhexadecahydro-1H-cyclopenta[a]phenanthren-17-yl)-2-(2H-1,2,3-triazol-2-yl)ethan-1-one] the EC50 [1] was 130 nM, the “Mean (immobility, %)” value (ICR mice; dose 10 mpk p.o.) was 35.75% and the “Mean (immobility, s)” value (ICR mice; dose 10 mpk p.o.) was 85.8 s. For the same molecule, the “immobility time during the latter four minutes compared with that of the model group” value (ICR mice; forced swimming, ICR mice) was “very significantly different”, the “Incubation period of the clonic seizure (sec) Mean ± SEM” value (CD-1 mice) was 841.4 ± 179.8 s and the “Incubation period of the generalized tonic seizure (sec) Mean” value (CD-1 mice) was 1497.4 ± 124.3 s. The “Mortality rate (%)” value (CD-1 mice) was 40%, the “Number of clonic seizures Mean” value (CD-1 mice) was 1.9 ± 0.4 and the “Number of generalized tonic seizures Mean” value (CD-1 mice) was 0.5 ± 0.2. For the same molecule, the “Time when the animal died (sec) Mean” value (CD-1 mice) was 1573.1 ± 117.9 s.
In the case of `Cc1nnn(CC(=O)[C@H]2C[C@@H](C3CC3)[C@H]3[C@@H]4CC[C@@H]5C[C@](C)(O)CC[C@@H]5[C@H]4CC[C@@]32C)n1` [Example 52, 1-((3R,5R,8R,9R,10S,13S,14S,15S,17S)-15-Cyclopropyl-3-hydroxy-3,13-dimethylhexadecahydro-1H-cyclopenta[a]phenanthren-17-yl)-2-(5-methyl-2H-tetrazol-2-yl)ethan-1-one], the EC50 [1] is reported as 150 nM, the “Mean (immobility, %)” value (ICR mice; dose 5 mpk p.o.) is reported as 38.00% and the “Mean (immobility, s)” value (ICR mice; dose 5 mpk p.o.) is reported as 91.21 s. The “Incubation period of the clonic seizure (sec) Mean ± SEM” value (CD-1 mice) was 635.4 ± 149.9 s, the “Incubation period of the generalized tonic seizure (sec) Mean” value (CD-1 mice) was 1506.8 ± 149.8 s and the “Mortality rate (%)” value (CD-1 mice) was 30%. For the same molecule, the “Number of clonic seizures Mean” value (CD-1 mice) was 1.8 ± 0.3, the “Number of generalized tonic seizures Mean” value (CD-1 mice) was 0.3 ± 0.2 and the “Time when the animal died (sec) Mean” value (CD-1 mice) was 1618.1 ± 121.3 s.
`C[C@@]1(O)CC[C@H]2[C@H](CC[C@@H]3[C@@H]2CC[C@@]2(C)[C@H]3[C@H](C3CC3)C[C@@H]2C(=O)Cn2nc(C#N)cc2C#N)C1` [Example 96, 1-(2-((3R,5R,8R,9R,10S,13S,14S,15S,17S)-15-Cyclopropyl-3-hydroxy-3,13-dimethylhexadecahydro-1H-cyclopenta[a]phenanthren-17-yl)-2-oxoethyl)-1H-pyrazole-3,5-dicarbonitrile] gave an IC50 (GABA-A receptor) of 28.5 nM and an EC50 [1] of 84 nM.
